Patent US20150265682A1, “THERAPEUTIC METHODS AND COMPOSITIONS FOR TREATING DIABETES” (Orient Europharma Co., Ltd., priority 2014, published 2015)

Columns and labels:
[1] = test system: soleus muscle of normal, type 1 DM and type 2 DM mice; assay: Glycogen content in soleus muscle in vivo (borapetoside A); parameters: species or system ICR mice; conditions: borapetoside A 10 mgkg^−1 i.p. 60 minutes, insulin 0.5 IUkg^−1
Method: (§1) After three days of acclimatization, the mice had free access to a standard rodent chow (normal mice), a standard rodent chow after single […] streptozotocin (STZ) intraperitoneal injection (T1DM mice), and a fat-rich chow diet and fructose-sweetened water (T2DM mice) for 4 weeks. The induction of Type 1 DM was assessed and confirmed when the mice had plasma glucose levels ≧350 mgdL^−1, accompanied with polyuria, hyperphagia and decreased body weight. The induction Type 2 DM in the mice was assessed by measuring fasting plasma glucose levels and confirmed when plasma glucose level was ≧150 mgdL^−1 after the 4-week induction. The animals were assigned randomly into three groups, with seven animals in each group. In group I, the mice were treated with vehicle, 2% DMSO in normal saline, as the negative control. In group II, the mice were intraperitoneally treated with borapetoside A (0.1-10 mgkg^−1). In group Ill, the positive control, the mice received intraperitoneally metformin (300 mgkg^−1; Sigma Chemical Co., St. Louis, Mo., U.S.A.) or insulin (0.5 IUkg^−1; Insulin Actrapid® HM; Novo Nordisk, Denmark). In the acute study, mice under anesthesia received a single intraperitoneal administration of borapetoside A, negative control, or positive control. In the subacute study, mice received intraperitoneal administrations of borapetoside A, vehicle, or insulin twice a day for seven days.
(§2) The mice were injected with borapetoside A (10 mgkg^−1, interperitoneal) for 60 minutes or insulin (0.5 IUkg^−1, interperitoneal) for 30 minutes. After the treatment, the anesthetic mice were sacrificed by cervical dislocation to collect the soleus muscle and liver. About 40 mg of each sample was dissolved in 1 mol/L KOH at 75° C. for 30 min. The dissolved homogenate was neutralized by glacial acetic acid and then incubated overnight in acetate buffer (0.3 mol/L sodium acetate, pH 4.8) containing amyloglucosidase (Sigma, St. Louis, Mo.). The mixture was then neutralized with 1 mol/L NaOH to stop the reaction. The glycogen contents in the tissue samples were determined as μg of glucose per mg of tissue (wet weight).

[2] = test system: liver of normal, type 1 DM and type 2 DM mice; assay: Glycogen content in liver in vivo (borapetoside A); parameters: species or system ICR mice; conditions: borapetoside A 10 mgkg^−1 i.p. 60 minutes, insulin 0.5 IUkg^−1
Method: as §1, §2

[3] = test system: skeletal muscle of normal, T1DM and T2DM mice; assay: Glycogen content in skeletal muscle after borapetoside C and insulin; type: in vivo, ICR mice; conditions: for Glycogen content in skeletal muscle: BoC 0.1 mg/kg i.p. 30 min before insulin, 30 min after insulin injection
Method: (§3) T1DM mice were induced by a known method. In brief, an intraperitoneal injection of streptozotocin (STZ; Sigma Chemical Co.; St. Louis, Mo.) at 150 mg/kg was performed in mice that were fasted for 48 h. The induction of T1DM was assessed and confirmed when the mice had plasma glucose levels ≧350 mg/dL, accompanied with polyuria, hyperphagia and decreased body weight. The control mice group received an injection of vehicle and then carried out for 4 weeks. T2DM mice were induced by maintaining on a fat-rich chow diet and fructose-sweetened water for 4 weeks from the age of 4-5 weeks according to previous methods. The induction T2DM mice were assessed by measuring fasting plasma glucose levels and confirmed when plasma glucose level was ≧150 mg/dL after a 4-week induction.
Glycogen content of skeletal muscles was measured by a known method. In brief, mice were injected with borapetoside C (5.0 mg/kg, interperitoneal) for 60 min or insulin (0.5 IU/kg, interperitoneal.) for 30 min, and the soleus muscle was isolated from anesthetized mice. About 40 mg of muscle sample was dissolved in 1 N KOH at 75° C. for 30 min. The dissolved homogenate was neutralized by glacial acetic acid and then incubated overnight in acetate buffer (0.3 M sodium acetate, pH 4.8) containing amyloglucosidase (Sigma, St. Louis, Mo.). The mixture was then neutralized with 1 N NaOH to stop the reaction. The glycogen contents in the tissue samples were determined as μg of glucose per mg of tissue (wet weight).
Both non-diabetic and diabetic mice were subjected to various doses of insulin injections at 30 min after intraperitoneal injections with borapetoside C (0.1 mg/kg) or with the vehicle. The glycogen contents in skeletal muscles were then determined at 30 min after insulin injections (Table 4). The ratios of increased glycogen content in the other groups were normalized to those of vehicle-treated group. The ratio was 119.8%, 125.3%, and 108.5% in normal, T1DM, and T2DM mice of insulin-treated group. In borapetoside C combined with insulin-treated group, it was 130.2%, 162.8%, and 122.6% in normal, T1DM, and T2DM mice. […] The increase of insulin sensitivity by borapetoside C is more prominent in diabetic mice than normal mice. Similarly, plasma glucose reduction in mice treated with insulin and borapetoside A are tested and measured.

[4] = test system: non-diabetic and T2DM mice; assay: Oral glucose tolerance test (OGTT) with borapetoside C; type: in vivo, ICR mice; conditions: 5 mg/kg
Method: This study was conducted following the University ethical guidelines on animal experimentation and complied with the Guide for the Care and Use of Laboratory Animals published by the US National Institutes of Health (NIH publication no. 85-23, revised 1996). The animal facility was well controlled for temperature (22±1° C.), and humidity (60±5%) and a 12 h/12 h light-dark cycle was maintained with access to food and water ad libitum. Four-week-old male ICR mice were acquired from BioLasco Taiwan Co., Ltd. and maintained at College of Medicine Experimental Animal Center, National Taiwan University. The study was conducted on 8-10 week-old male ICR mice.
as §3
Blood samples were collected from the orbital vascular plexus of mice under anesthesia with sodium pentobarbital (80 mg/kg, intraperitoneal, Sigma Chemical Co., St. Louis, Mo., USA). Blood samples were then centrifuged at 13000 rpm for 5 min, and the plasma was kept on ice prior to the assay. The plasma glucose concentration was measured using commercial kits following manufacturer's instructions (BioSystems S. A., Barcelona, Spain).
To perform OGTT, mice were fasted overnight, divided into 2 groups and then administered a vehicle control and 5 mg/kg borapetoside C. This was followed by administration of a glucose solution at 2 g/kg via tube feeding. Blood samples were withdrawn from the orbital vascular plexus at intervals of 30, 60, 120, and 150 min after glucose administration. For the ITT, mice were fasted for 3 h. Human insulin (Insulin Actrapid) HM; Novo Nordisk, Denmark) was injected intraperitoneally after an intraperitoneal administration of 0.1 mg/kg borapetoside C for 30 min. Blood samples were collected from the orbital vascular plexus at the timed intervals mentioned above.

| Molecule | glycogen content in soleus muscle ([1]; mice with type 1 DM) | glycogen content in soleus muscle ([1]; mice with type 2 DM) | glycogen content in soleus muscle ([1]; normal mice) | glycogen content in liver ([2]; mice with type 1 DM) | glycogen content in liver ([2]; mice with type 2 DM) | glycogen content in liver ([2]; normal mice) | Glycogen content in skeletal muscle ([3]; Normal mice) | Glycogen content in skeletal muscle ([3]; T1DM mice) | Glycogen content in skeletal muscle ([3]; T2DM mice) | basal plasma glucose concentration in OGTT ([4]; T2DM mice) [mg/dL] | decrease of area under the curve (AUC) in OGTT vs vehicle-treated group ([4]; T2DM mice) [%] | plasma glucose levels at 60, 120 and 150 min vs vehicle-treated mice ([4]; T2DM mice) | plasma glucose concentration sixty min after oral glucose administration ([4]; T2DM mice, glucose 2 g/kg) [mg/dL] | basal plasma glucose concentration in OGTT ([4]; non-diabetic mice) [mg/dL] | plasma glucose levels at 120 min and 150 min vs vehicle-treated mice ([4]; non-diabetic mice) | plasma glucose concentration at 60 min after oral administration of glucose ([4]; non-diabetic mice, glucose 2 g/kg) [mg/dL] | decrease of area under the curve (AUC) in OGTT vs vehicle-treated group ([4]; normal mice) [%] | ratio of glycogen content normalized to vehicle-treated group ([3]; T1DM mice) [%] | ratio of glycogen content normalized to vehicle-treated group ([3]; T2DM mice) [%] | ratio of glycogen content normalized to vehicle-treated group ([3]; normal mice) [%] |
| --- | --- | --- | --- | --- | --- | --- | --- | --- | --- | --- | --- | --- | --- | --- | --- | --- | --- | --- | --- | --- |
| C[C@@]12C[C@@H](c3ccoc3)OC(=O)[C@@H]1C[C@@H]1OC(=O)[C@@]3(O)[C@@H](O[C@@H]4O[C@H](CO)[C@@H](O)[C@H](O)[C@H]4O)CC[C@@H]2[C@@]13C [Borapetoside A, borapetoside A] | 155.6±8.6 % of vehicle control | 171.8±12.0 % of vehicle control | 116.5±4.2 % of vehicle control | 196.9±15.6 % of vehicle control | 146.1±12.0 % of vehicle control | 257.8±15.8 % of vehicle control |  |  |  |  |  |  |  |  |  |  |  |  |  |  |
| COC(=O)C1=CCC[C@H]2[C@]3(C)C[C@@H](c4ccoc4)OC(=O)[C@@H]3C[C@@H](O[C@@H]3O[C@H](CO)[C@@H](O)[C@H](O)[C@H]3O)[C@@]12C [Borapetoside C, borapetoside C] |  |  |  |  |  |  | 32.7 ± 0.7 μg of glucose per mg of tissue (wet weight) | 30.0 ± 1.2 μg of glucose per mg of tissue (wet weight) | 30.7 ± 1.3 μg of glucose per mg of tissue (wet weight) | 206.8 ± 19.0 | 16 | significantly lower | 338.2 ± 24.5 | 115 ± 3.5 | significantly lower | 312.8 ± 21.3 | 22 |  |  |  |
| Insulin: human insulin, Insulin Actrapid HM, a short-acting insulin provided by Novo Nordisk [reference compound] |  | failed to enhance |  |  | failed to enhance |  | 38.1 ± 0.3 μg of glucose per mg of tissue (wet weight) | 38.1 ± 2.3 μg of glucose per mg of tissue (wet weight) | 35.5 ± 1.1 μg of glucose per mg of tissue (wet weight) |  |  |  |  |  |  |  |  | 125.3 | 108.5 | 119.8 |
